Test results reported in patent publication US8697140B2, “Virucidal disinfectant” (priority 2005, dated 2014).
Several values for one entry are separate records, joined by “and”; a condition that tells them apart may be missing. Equal entries are not always repeated.

Columns and labels:
poliovirus = settings: cited from earlier work
[1] = test system: poliovirus (polio vaccination strain type I, strain LSc-2ab)

For `O=P(O)(O)O` [phosphoric acid], the Effectiveness against poliovirus (poliovirus) is given as “ineffective”.

In the case of `C=O` [formaldehyde solution, formaldehyde], the “Reduction of poliovirus titer” value [1] is reported as 1.25 log10 steps and 2.13 log10 steps.
